# Measured values reported in US9512107B2, “Therapeutically active compositions and their methods of use” (Agios Pharmaceuticals, Inc., priority 2012, dated 2016).
# Changes are numbered by the printed parent chain.
# Tests used:
# [1] = tested on: U87MG pLVX-IDH2 R140Q-neo cells; test: U87MG pLVX-IDH2 R140Q-neo cell based assay, 2-HG in media by LC-MS at 48 hours; conditions: Homo sapiens, U-87 MG
# Procedure, shortened: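 2-HG secreted into the medium was measured by LC-MS after 48 h of compound treatment (0.2% DMSO final) of U87MG pLVX-IDH2 R140Q-neo cells in DMEM/10% FBS. The same wells were assayed at 72 h by CellTiter-Glo luminescence for effects on growth.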
# [2] = target: T1, IDH2 R172K (Homo sapiens, UniProt P48735, R172K); test: IDH2 R172K enzymatic assay (NADPH cofactor depletion, diaphorase/resazurin readout); type: biochemical; conditions: read-out: Enz R172K
# T1 sequence (P48735 40-452 R172K): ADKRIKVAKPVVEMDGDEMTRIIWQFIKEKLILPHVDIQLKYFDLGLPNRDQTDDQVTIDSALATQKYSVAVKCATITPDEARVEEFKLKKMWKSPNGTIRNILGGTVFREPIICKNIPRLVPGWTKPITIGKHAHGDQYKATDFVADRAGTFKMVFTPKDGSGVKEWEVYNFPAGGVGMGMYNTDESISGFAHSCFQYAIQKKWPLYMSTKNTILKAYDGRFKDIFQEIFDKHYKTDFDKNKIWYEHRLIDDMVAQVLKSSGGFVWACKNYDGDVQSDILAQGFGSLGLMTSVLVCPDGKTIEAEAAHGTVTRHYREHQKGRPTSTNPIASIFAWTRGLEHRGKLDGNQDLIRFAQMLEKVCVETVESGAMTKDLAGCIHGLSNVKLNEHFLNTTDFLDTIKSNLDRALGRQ
# Procedure, shortened: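 Cofactor depletion format: enzyme + compound 1 h RT; add substrate mix (50 μM NADPH, 6.3 mM α-KG); react 1 h RT; quench with stop mix (36 μg/ml diaphorase, 60 μM resazurin); read resorufin fluorescence as residual NADPH.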
# [3] = target: T2, IDH2 R140Q (Homo sapiens, UniProt P48735, R140Q); test: IDH2 R140Q enzymatic assay (cofactor depletion, similar format); type: biochemical; conditions: read-out: Enz R140Q
# T2 sequence (P48735 40-452 R140Q): T1 sequence (P48735 40-452 R172K) with R101Q, K133R
SMILES,IC50 [1],IC50 [2],IC50 [3]
"CC(O)CNc1nc(Nc2ccccc2)nc(-c2ccccc2)n1 (stereo not drawn) [Compound 240, 1-(4-phenyl-6-(phenylamino)-1,3,5-triazin-2-ylamino)propan-2-ol]",100 to 1000 nM,1000 to 10000 nM,< 100 nM
CC(C)Nc1nc(Nc2ccc(F)cc2)nc(-c2ccccc2)n1 [Compound 132],< 100 nM,100 to 1000 nM,< 100 nM
"CC(C)Nc1nc(Nc2cncnc2)nc(-c2ccccc2)n1 [Compound 266, N^2-isopropyl-6-phenyl-N^4-(pyrimidin-5-yl)-1,3,5-triazine-2,4-diamine]",100 to 1000 nM,1000 to 10000 nM,< 100 nM
"CC(C)(C)CNc1nc(Nc2cncnc2)nc(-c2cccc(C(F)(F)F)n2)n1 [Compound 521, N-(2,2-Dimethyl-propyl)-N′-pyrimidin-5-yl-6-(6-trifluoromethyl-pyridin-2-yl)-[1,3,5]triazine-2,4-diamine]",< 100 nM,< 100 nM,100 to 1000 nM
"CC(C)(C)Nc1nc(Nc2cc(F)cc(S(C)(=O)=O)c2)nc(-c2cccc(C(F)(F)F)n2)n1 [Compound 592, N-tert-Butyl-N′-(3-fluoro-5-methanesulfonyl-phenyl)-6-(6-trifluoromethyl-pyridin-2-yl)-[1,3,5]triazine-2,4-diamine]",< 100 nM,100 to 1000 nM,100 to 1000 nM
"CC(C)(O)CNc1nc(Nc2ccccc2)nc(-c2ccccc2)n1 [Compound 203, 2-methyl-1-(4-phenyl-6-phenylamino-[1,3,5]triazin-2-yl-amino)-propan-2-ol]",100 to 1000 nM,1000 to 10000 nM,< 100 nM
"CC(C)(C)Nc1nc(Nc2cc(F)cc(F)c2)nc(-c2nccc(N)n2)n1 [Compound 479, 6-(4-Amino-pyrimidin-2-yl)-N-tert-butyl-N′-(3,5-difluoro-phenyl)-[1,3,5]triazine-2,4-diamine]",< 100 nM,100 to 1000 nM,100 to 1000 nM
"CC(C)Nc1nc(Nc2ccnc(C(F)(F)F)c2)nc(-c2cc(F)cc(Cl)c2)n1 [Compound 647, 6-(3-chloro-5-fluorophenyl)-N2-isopropyl-N4-(2-(trifluoromethyl)pyridin-4-yl)-1,3,5-triazine-2,4-diamine]",< 100 nM,100 to 1000 nM,100 to 1000 nM
"Cn1nccc1Nc1nc(Nc2ccnc(C(F)(F)F)c2)nc(-c2cccc(C(F)(F)F)n2)n1 [Compound 544, N-(2-Methyl-2H-pyrazol-3-yl)-6-(6-trifluoromethyl-pyridin-2-yl)-N′-(2-trifluoromethyl-pyridin-4-yl)-[1,3,5]triazine-2,4-diamine]",< 100 nM,100 to 1000 nM,100 to 1000 nM
"CC(C)Nc1nc(Nc2ccnc(C(F)F)c2)nc(-c2cccc(C(C)(F)F)n2)n1 [Compound 675, 6-[6-(1,1-Difluoro-ethyl)-pyridin-2-yl]-N-(2-difluoromethyl-pyridin-4-yl)-N′-isopropyl-[1,3,5]triazine-2,4-diamine]",< 100 nM,< 100 nM,100 to 1000 nM
"CC(F)(F)c1cccc(-c2nc(NCC3CC3)nc(Nc3cc(F)cc(F)c3)n2)n1 [Compound 584, N2-(cyclopropylmethyl)-6-(6-(1,1-difluoroethyl)pyridin-2-yl)-N4-(3,5-difluorophenyl)-1,3,5-triazine-2,4-diamine]",< 100 nM,< 100 nM,100 to 1000 nM
COc1cccc(-c2nc(Nc3ccccc3)nc(NC(C)C)n2)c1 [Compound 115],100 to 1000 nM,100 to 1000 nM,< 100 nM
"CC(C)Nc1nc(Nc2cncc(F)c2)nc(-c2cccc(N)n2)n1 [Compound 470, 6-(6-Amino-pyridin-2-yl)-N-(5-fluoro-pyridin-3-yl)-N′-isopropyl-[1,3,5]triazine-2,4-diamine]",< 100 nM,100 to 1000 nM,100 to 1000 nM

# Now from value to compound:
IC50 [1],IC50 [2],IC50 [3],SMILES
< 100 nM,< 100 nM,100 to 1000 nM,"CC(F)(F)c1cccc(-c2nc(NCC3CC3)nc(Nc3ccnc(C(F)(F)F)c3)n2)n1 [Compound 595, N2-(cyclopropylmethyl)-6-(6-(1,1-difluoroethyl)pyridin-2-yl)-N4-(2-(trifluoromethyl)pyridin-4-yl)-1,3,5-triazine-2,4-diamine]"
1000 to 10000 nM,1000 to 10000 nM,100 to 1000 nM,CC(C)Nc1nc(Nc2ccccc2)nc(-c2cccc(C#N)c2)n1 [Compound 128]
< 100 nM,< 100 nM,100 to 1000 nM,"CC(C)Nc1nc(Nc2ccnc(C(F)(F)F)c2)nc(-c2cc(O)cc(F)c2)n1 [Compound 658, 3-Fluoro-5-[4-isopropylamino-6-(2-trifluoromethyl-pyridin-4-ylamino)-[1,3,5]triazin-2-yl]-phenol]"
< 100 nM,100 to 1000 nM,100 to 1000 nM,"CC(C)Nc1nc(Nc2ccnc(C(C)(C)O)c2)nc(-c2ccccc2F)n1 [Compound 632, 2-(4-((4-(2-fluorophenyl)-6-(isopropylamino)-1,3,5-triazin-2-yl)amino)pyridin-2-yl)propan-2-ol]"
< 100 nM,< 100 nM,100 to 1000 nM,"CC1(Nc2nc(Nc3ccnc(C(F)(F)F)c3)nc(-c3cccc(N)n3)n2)CC1 [Compound 692, 6-(6-aminopyridin-2-yl)-N2-(1-methylcyclopropyl)-N4-(2-(trifluoromethyl)pyridin-4-yl)-1,3,5-triazine-2,4-diamine]"
100 to 1000 nM,1000 to 10000 nM,< 100 nM,"O[C@@H]1CC[C@@H](Nc2nc(Nc3ccccc3)nc(-c3ccccc3)n2)C1 [Compound 267, (1R,3R)-3-(4-phenyl-6-(phenylamino)-1,3,5-triazin-2-ylamino)cyclopentanol]"
< 100 nM,< 100 nM,100 to 1000 nM,"FC(F)(F)c1cc(Nc2nc(NC3CCOC3)nc(-c3cccc(C(F)(F)F)n3)n2)ccn1 (stereo not drawn) [Compound 529, N-(Tetrahydro-furan-3-yl)-N′-(2-trifluoromethyl-pyridin-4-yl)-6-(6-trifluoromethyl-pyridin-2-yl)-[1,3,5]triazine-2,4-diamine]"
< 100 nM,< 100 nM,100 to 1000 nM,"CC(C)(C)Nc1nc(Nc2cc(F)cc(F)c2)nc(-c2cccc(C(C)(F)F)n2)n1 [Compound 585, N2-(tert-butyl)-6-(6-(1,1-difluoroethyl)pyridin-2-yl)-N4-(3,5-difluorophenyl)-1,3,5-triazine-2,4-diamine]"
< 100 nM,< 100 nM,100 to 1000 nM,"CC(C)Nc1nc(Nc2cncc(C(F)(F)F)c2)nc(-c2cccc(C(F)(F)F)n2)n1 [Compound 386, N^2-isopropyl-6-(6-(trifluoromethyl)pyridin-2-yl)-N^4-(5-(trifluoromethyl)pyridin-3-yl)-1,3,5-triazine-2,4-diamine]"
100 to 1000 nM,1000 to 10000 nM,100 to 1000 nM,"CC(C)(C)CNc1nc(Nc2cncc(C#N)c2)nc(-c2cccc(Cl)n2)n1 [Compound 498, 5-[4-(6-Chloro-pyridin-2-yl)-6-(2,2-dimethyl-propylamino)-[1,3,5]triazin-2-ylamino]-nicotinonitrile]"
< 100 nM,< 100 nM,100 to 1000 nM,"CC(C)Nc1nc(Nc2ccnc(C(F)(F)F)c2)nc(-c2cc(O)ccc2F)n1 [Compound 634, 4-Fluoro-3-[4-isopropylamino-6-(2-trifluoromethyl-pyridin-4-ylamino)-[1,3,5]triazin-2-yl]-phenol]"
